This note sets out measurements from PubChem BioAssay (NCI).

Some test systems named below: DU-145 prostate; NCI-H226 lung; IGROV1 ovarian; MDA-N; OVCAR-3 ovarian; OVCAR-8 ovarian; SK-MEL-5 melanoma; SK-OV-3 ovarian; HOP-92 NSCLC; SK-MEL-28 melanoma; UACC-62 melanoma; MCF7 breast; HCT-15 colon; KM12 colon; MDA-MB-231 breast; U251 CNS; NCI-H23 lung; SR leukemia; SF-268 CNS.
Holding throughout (assay): DTP human tumour cell line panel, 48 h

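The compound was tested at five concentrations on cells cultured in 96-well plates, with a 48-hour exposure period. TGI marks complete inhibition of growth.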 Where only a bound is given, the exact number is not on record here.

As for `CCOP(=O)(CCC(O)CNc1nc(N)nc(Cl)c1N=Nc1ccc(Cl)cc1)OCC` (stereo not drawn), the TGI (commonly the concentration at which net growth stops) with DU-145 prostate was over 100 µM; in the test on NCI-H226 lung, 64.5 µM; with IGROV1 ovarian, 33 µM; in the test on MDA-N, 28.3 µM; with OVCAR-3 ovarian, 25.3 µM; in the test on OVCAR-8 ovarian, over 100 µM. The TGI with SK-MEL-5 melanoma stood at 25.7 µM; in the test on SK-OV-3 ovarian, 58.9 µM; with HOP-92 NSCLC, 3.8 µM; in the test on SK-MEL-28 melanoma, 25.9 µM; in the test with UACC-62 melanoma, 30.2 µM; in the test with MCF7 breast, 26.3 µM. Further, the TGI with HCT-15 colon was 19.6 µM; with KM12 colon, 37.5 µM; in the test with MDA-MB-231 breast it was over 100 µM; in the test with U251 CNS, 51.2 µM; with NCI-H23 lung, 37.4 µM; in the test on SR leukemia it was 50.3 µM. For the same compound, the TGI in the test on SF-268 CNS amounted to 42.7 µM.

As for `O=c1[nH]c2nccn2c(Cl)c1Br`, the TGI is over 100 µM in the test with DU-145 prostate; 89.4 µM in the test with NCI-H226 lung; 45.4 µM in the test with IGROV1 ovarian; 45.8 µM with MDA-N; 35.7 µM in the test on OVCAR-3 ovarian; 39.3 µM in the test with OVCAR-8 ovarian. Besides, the TGI in the test on SK-MEL-5 melanoma is 64.9 µM; in the test with SK-OV-3 ovarian it was 86.9 µM; in the test on HOP-92 NSCLC, 78.7 µM; in the test on SK-MEL-28 melanoma it was 36 µM; with UACC-62 melanoma, 43.3 µM; with MCF7 breast, over 100 µM. For the same compound, the TGI in the test on HCT-15 colon is 33.2 µM; in the test on KM12 colon it was over 100 µM; in the test on MDA-MB-231 breast, 37.4 µM; in the test on U251 CNS, 34.4 µM; with NCI-H23 lung it was 36.3 µM; in the test with SR leukemia, 48.7 µM. Besides, in the test with SF-268 CNS, the TGI was 49.1 µM.

For `Cc1ccc(S(=O)(=O)Oc2coc(CO)cc2=O)cc1`, the TGI was 27.1 µM in the test with DU-145 prostate; over 100 µM in the test on NCI-H226 lung; 34.5 µM in the test on IGROV1 ovarian; 25.8 µM in the test on MDA-N; 31.9 µM in the test on OVCAR-3 ovarian; over 50 µM in the test on OVCAR-8 ovarian. In addition, the TGI in the test with SK-MEL-5 melanoma amounted to 33.7 µM; with SK-OV-3 ovarian, 37.7 µM; with HOP-92 NSCLC, 39.6 µM; with SK-MEL-28 melanoma, 36.6 µM; with UACC-62 melanoma it was 25.3 µM; with MCF7 breast it was 22.1 µM. The TGI in the test on HCT-15 colon is over 49.5 µM; in the test with KM12 colon it was 18.7 µM; in the test on MDA-MB-231 breast, 41.7 µM; in the test with U251 CNS, 23.7 µM; in the test on NCI-H23 lung, 35.3 µM; in the test with SR leukemia it was over 85.5 µM. The TGI with SF-268 CNS stood at 44.8 µM.

As to `Cc1nn(-c2ccccc2)c2nc3c(c(C)nn3-c3ccccc3)c(-c3ccccc3Br)c12`, the TGI in the test on DU-145 prostate, with NCI-H226 lung, in the test with IGROV1 ovarian, in the test on MDA-N, in the test with OVCAR-3 ovarian and in the test with OVCAR-8 ovarian was over 100 µM throughout. Further, the TGI with SK-MEL-5 melanoma, in the test with SK-OV-3 ovarian, with HOP-92 NSCLC, in the test with SK-MEL-28 melanoma, with UACC-62 melanoma and with MCF7 breast was over 100 µM each time. Besides, the TGI with HCT-15 colon, with KM12 colon, with MDA-MB-231 breast, in the test on U251 CNS, with NCI-H23 lung and in the test with SR leukemia was over 100 µM each time. The same compound displayed a TGI in the test on SF-268 CNS of over 100 µM.

On to `CCn1cc(C(=O)O)c(=O)c2cc(F)c(N3CCN(Cn4c(O)c(N=NC(=O)c5ccncc5)c5cc(Cl)ccc54)CC3)cc21`, for which the TGI in the test with DU-145 prostate was over 100 µM; in the test on NCI-H226 lung, over 100 µM; with IGROV1 ovarian, 61.6 µM; in the test with MDA-N, over 100 µM; in the test with OVCAR-3 ovarian, over 100 µM; in the test on OVCAR-8 ovarian it was over 100 µM. Moreover, the concentration for total growth inhibition (TGI) with SK-MEL-5 melanoma is over 100 µM; with SK-OV-3 ovarian it was 61.3 µM; with HOP-92 NSCLC, over 100 µM; in the test with SK-MEL-28 melanoma, over 100 µM; in the test on UACC-62 melanoma, over 100 µM; with MCF7 breast, over 100 µM. For the same compound, the TGI in the test with HCT-15 colon is over 100 µM; in the test on KM12 colon it was over 100 µM; in the test with MDA-MB-231 breast it was over 100 µM; in the test with U251 CNS it was 94.4 µM; in the test with NCI-H23 lung, over 100 µM; with SR leukemia, 31 µM. In the test with SF-268 CNS, this compound yielded a TGI of over 100 µM.

For `CCC/C(Cl)=N\OC(=O)Nc1ccc(Br)cc1`, the total growth inhibition concentration (TGI) in the test on DU-145 prostate stood at 27.2 µM; in the test with NCI-H226 lung, 44 µM; with IGROV1 ovarian, 32.8 µM; with MDA-N it was 27.3 µM; with OVCAR-3 ovarian, 16.3 µM; in the test on OVCAR-8 ovarian it was 28.9 µM. Besides, the TGI in the test on SK-MEL-5 melanoma was determined as 27.7 µM; in the test with SK-OV-3 ovarian it was 30.5 µM; in the test with HOP-92 NSCLC it was 9.17 µM; with SK-MEL-28 melanoma it was 32.5 µM; in the test on UACC-62 melanoma, 44.7 µM; with MCF7 breast, 19.7 µM. For the same compound, the TGI worked out at 19.9 µM in the test on HCT-15 colon; 16.2 µM in the test with KM12 colon; 33.8 µM in the test with MDA-MB-231 breast; 32.1 µM in the test on U251 CNS; 40.6 µM in the test with NCI-H23 lung; 18.4 µM in the test with SR leukemia. In the test with SF-268 CNS, the TGI was found to be 46.2 µM.

On to `COc1ccc2c(c1)-c1c(c3ccccc3n1CCN1CCCCC1)CC2`, for which the TGI in the test on DU-145 prostate is over 100 µM; in the test on NCI-H226 lung, 37.5 µM; with IGROV1 ovarian, 41.9 µM; in the test on MDA-N it was 67.5 µM; in the test with OVCAR-3 ovarian, 26.1 µM; in the test with OVCAR-8 ovarian it was over 55.3 µM. In addition, the TGI is 30.1 µM in the test on SK-MEL-5 melanoma; 53 µM in the test on SK-OV-3 ovarian; 54.4 µM in the test with HOP-92 NSCLC; 99.2 µM in the test with SK-MEL-28 melanoma; 36.5 µM in the test on UACC-62 melanoma; over 80.8 µM with MCF7 breast. For the same compound, the concentration for total growth inhibition (TGI) with HCT-15 colon is 27.7 µM; in the test on KM12 colon, over 56.9 µM; with MDA-MB-231 breast, 31.1 µM; with U251 CNS, 56.7 µM; with NCI-H23 lung, 38.8 µM; in the test on SR leukemia it was 30.9 µM. Besides, the TGI with SF-268 CNS was over 95.5 µM.
